We go through 4 compounds from patent US9751837B2, “Kinase inhibitors” (RESPIVERT LIMITED, priority 2014, dated 2017).

One data set deals with p38 MAPKα (MAPK14) (Homo sapiens (Human), UniProt Q16539). The data set is described as follows: p38 MAPKα enzyme inhibition (Method 2), Z-LYTE FRET. The format is biochemical. The procedure: (§1) The enzyme inhibitory activities of compounds disclosed herein are determined by FRET using synthetic peptides labelled with both donor and acceptor fluorophores (Z-LYTE, Invitrogen Ltd., Paisley, UK).
The following two assay variants can be used for determination of p38 MAPKα inhibition.
The inhibitory activities of test compounds against the p38 MAPKα isoform (MAPK14: Invitrogen) are evaluated indirectly by determining the level of activation/phosphorylation of the down-stream molecule, MAPKAP-K2. The p38 MAPKα protein (80 ng/mL, 2.5 μL) is mixed with the test compound (2.5 μL of either 4 μg/mL, 0.4 μg/mL, 0.04 μg/mL or 0.004 μg/mL) for 2 hr at RT. […] The mixture is incubated for 1 hr at RT. Development reagent (protease, 5 μL) is added for 1 hr prior to detection in a fluorescence microplate reader (Varioskan® Flash, ThermoFisher Scientific). […]
(§2) In all cases, the site-specific protease cleaves non-phosphorylated peptide only and eliminates the FRET signal. Phosphorylation levels of each reaction are calculated using the ratio of coumarin emission (donor) over fluorescein emission (acceptor), for which high ratios indicate high phosphorylation and low ratios indicate low phosphorylation levels.

A further data set deals with c-Src (Homo sapiens (Human), UniProt P12931). The experiment in a line: c-Src enzyme inhibition, Z-LYTE FRET. The format is biochemical. The protocol: as §1
The inhibitory activities of compounds of the invention against c-Src and Syk enzymes (Invitrogen), are evaluated in a similar fashion to that described hereinabove. The relevant enzyme (3000 ng/mL or 2000 ng/mL respectively, 2.5 μL) is incubated with the test compound (either 1 μg/mL, 0.1 μg/mL, 0.01 μg/mL, or 0.001 μg/mL, 2.5 μL each) for 2 hr at RT. The FRET peptides (8 μM. 2.5 μL), and appropriate ATP solutions (2.5 μL, 800 μM for c-Src, and 60 μM ATP for Syk) are then added to the enzymes/compound mixtures and the mixture incubated for 1 hr. Development reagent (protease, 5 μL) is added for 1 hr prior to detection in a fluorescence microplate reader (Varioskan® Flash, ThermoFisher Scientific).
as §2

The next data set deals with LPS-stimulated rats. The experiment in a line: Endotoxin-induced uveitis in rats (vi). The format is in vivo, Lewis rats. The note with it: rats treated with intravitreal endotoxin LPS. The procedure:
Male, Lewis rats (6-8 weeks old, Charles River UK Limited) are housed in cages of 3 at 19-21° C. with a 12 h light/dark cycle (07:00/19:00) and fed a standard diet of rodent chow and water ad libitum. Non-fasted rats are weighed, individually identified on the tail with a permanent marker, and receive a single intravitreal administration into the right vitreous humor (5 μL dose volume) of 100 ng/animal of LPS (Escherichia coli 0111:B4 prepared in PBS, Sigma Aldrich, UK) using a 32-gauge needle. Untreated rats are injected with PBS. Test compound or vehicle (4% polyoxyl 40 stearate, 4% mannitol in PBS (pH 7.4)) are administered by the topical route onto the right eye (10 μL) of animals 1 hour prior to LPS, at the time of LPS administration, and 1, 2 and 4 hours post LPS administration. Before administration, the solution to be administered is sonicated to ensure a clear solution. 6 hours after LPS dosing, animals are euthanized by overdose with pentobarbitone (via cardiac puncture). Immediately after euthanasia, 10 μL of aqueous humor is collected from the right eye of the rats by puncture of the anterior chamber using a 32 gauge needle under a surgical microscope. The aqueous humor is diluted in 20 μL of PBS and total cell counts are measured immediately using a Countess automated cell counter (Invitrogen). […]

Data set [1] is classed as in vivo. Particulars: four daily instillations, 0.1 and 1.0 mg/mL, rabbits.
Data set [2] can be described thus: Stability of pharmaceutical formulations (HPLC). The data set is classed as physicochemical. Particulars: 1 mg/mL Na and HCl salts in 10 mM pH 7.2 phosphate buffer, 4.5% mannitol, 3% polyoxyl 40 stearate; 5° C. The procedure: The samples were sonicated to achieve clear solutions having the following properties: Osmolality (mOsm/kg): 310 (Na), 314 (HCl); pH: 7.00 (Na), 7.05 (HCl). 0.5 mL of the stock solutions were diluted to 1 mL with 20% DMSO in water & injected for purity analysis by HPLC. The remaining stock solutions were then split into aliquots of 0.5 mL in HPLC vials, and stored at various conditions in duplicate. Samples were stored at 5 and 25° C., before being analysed by HPLC at 1, 2 and 4 weeks. Separate samples were stored at 40° C. and analysed at 4 weeks.

The test system of data set [3] is Escherichia coli, WP2 uvrA. The experiment in a line: Bacterial reverse mutation screen, Escherichia coli. The note with it: presence or absence of S-9 mix, plate incorporation.
Data set [4] relates to Salmonella typhimurium, strains TA1535, TA1537, TA98 and TA100. The data set is described as follows: Bacterial reverse mutation screen, Salmonella typhimurium.
The target in the next data set is Syk (Homo sapiens (Human), UniProt P43405). The data set is described as follows: Syk enzyme inhibition, Z-LYTE FRET. The format is biochemical. The protocol:
as §1
The relevant enzyme (3000 ng/mL or 2000 ng/mL respectively, 2.5 μL) is incubated with the test compound (either 1 μg/mL, 0.1 μg/mL, 0.01 μg/mL, or 0.001 μg/mL, 2.5 μL each) for 2 hr at RT. […] Development reagent (protease, 5 μL) is added for 1 hr prior to detection in a fluorescence microplate reader (Varioskan® Flash, ThermoFisher Scientific).
as §2

A short description of data set [5]: Pharmacokinetics and total colon distribution after single oral administration. The data set is classed as in vivo, male C57BL/6 mice. The note with it: mice, oral 5 mg/kg; for total colon level: measured cpd = dosed cpd (1, 19, 47 as Na salt, 44 as NH4+ salt); for Mean blood concentration: measured cpd = dosed cpd (19, 47 as Na salt). The procedure: Studies were conducted by Sai Life Sciences (Hinjewadi, Pune, India) to investigate the systemic pharmacokinetics and total colon tissue distribution of compounds of the invention. In particular, pharmacokinetic studies were carried out in male C57BL/6 mice following a single oral administration of the compound.

Data set [6] can be described thus: Hydrolytic stability study (DMSO/water 3:1, 60° C.). The format is physicochemical. The protocol:
Chemical stability of compounds of the invention was assessed in a mixture of DMSO and water (3:1) at a test compound concentration of 1 mg/mL.
General HPLC Procedure • Agilent, Waters X-Select C18, 2.5 μm, 4.6×30 mm column, 4 min method, 5-95% MeCN/water (0.1% formic acid). Flow rate 2.5 mL/min. Column Oven Temperature 40° C. Detection 254 nm.
Sample Preparation • A 1.0 mg sample of test compound was dissolved in 750 μL of DMSO. Water (250 μL) was added slowly, ensuring no precipitation occurred.
Recording Stability • A 50 μL aliquot of the test solution was removed and analysed in duplicate by 5 μL HPLC injections. The peak area for the test compound was recorded following manual integration of the corresponding UV trace. • The test solution was heated to 60° C., with stirring, and 50 μL aliquots removed for HPLC analysis at 5 and 24 h timepoints.

Where two headings read alike, the source gives them in different places.

c-Src, sequence (P12931 whole entry, looked up): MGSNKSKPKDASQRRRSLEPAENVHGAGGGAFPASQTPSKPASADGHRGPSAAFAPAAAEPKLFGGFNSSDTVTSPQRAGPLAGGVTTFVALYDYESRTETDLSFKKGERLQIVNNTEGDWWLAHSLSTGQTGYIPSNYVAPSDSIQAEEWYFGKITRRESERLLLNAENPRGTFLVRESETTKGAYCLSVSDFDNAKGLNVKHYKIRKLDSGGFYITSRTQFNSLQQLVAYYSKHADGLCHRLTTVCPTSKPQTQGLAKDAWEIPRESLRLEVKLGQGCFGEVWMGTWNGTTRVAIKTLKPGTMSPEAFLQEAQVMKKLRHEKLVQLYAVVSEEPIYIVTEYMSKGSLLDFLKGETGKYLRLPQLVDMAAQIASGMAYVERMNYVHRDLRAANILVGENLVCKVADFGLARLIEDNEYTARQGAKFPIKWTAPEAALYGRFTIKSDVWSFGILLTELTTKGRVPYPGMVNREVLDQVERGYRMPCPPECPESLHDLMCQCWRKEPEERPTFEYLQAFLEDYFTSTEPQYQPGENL
p38 MAPKα (MAPK14), sequence (Q16539 whole entry): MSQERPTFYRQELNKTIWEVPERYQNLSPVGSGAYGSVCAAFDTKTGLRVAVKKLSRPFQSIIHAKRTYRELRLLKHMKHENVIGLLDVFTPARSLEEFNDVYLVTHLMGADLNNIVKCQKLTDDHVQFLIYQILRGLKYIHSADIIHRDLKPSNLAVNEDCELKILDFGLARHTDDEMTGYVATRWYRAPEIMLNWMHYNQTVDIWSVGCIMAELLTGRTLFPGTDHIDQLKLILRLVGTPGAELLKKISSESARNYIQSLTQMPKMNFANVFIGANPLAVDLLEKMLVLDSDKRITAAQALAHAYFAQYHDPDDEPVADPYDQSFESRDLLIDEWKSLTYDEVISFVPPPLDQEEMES

In the case of `COc1c(NC(=O)Nc2ccc(Oc3ccnc(Nc4ccc(C(=O)NCCN5CCOCC5)cc4)c3)c3ccccc23)cc(C(C)(C)C)cc1NS(C)(=O)=O` [17(u), 4-[[4-[[4-[[5-tert-butyl-3-(methanesulfonamido)-2-methoxy-phenyl]carbamoylamino]-1-naphthyl]oxy]-2-pyridyl]amino]-N-(2-morpholinoethyl)benzamide], the IC50 (as a rule, the concentration at which inhibition is half-maximal) against p38 MAPKα (MAPK14) stood at 66 nM; on c-Src, 32 nM.

`COc1cc(Nc2cc(Oc3ccc(NC(=O)Nc4cc(C(C)(C)C)cc(NS(C)(=O)=O)c4OC)c4ccccc34)ccn2)ccc1C(=O)O` [Example 1, 4-((4-((4-(3-(5-(tert-Butyl)-2-methoxy-3-(methylsulfonamido)phenyl)ureido)naphthalen-1-yl)oxy)pyridin-2-yl)amino)-2-methoxybenzoic acid]: the “cellular infiltration and cytokine IL-1β levels in anterior and posterior segments of the eyes” value in the data set with LPS-stimulated rats is “significantly and dose-dependently reduced”. For the same compound, the “local tolerability of the formulations (ocular)” value in [1] (Phase 1: one treatment day) and in data set [1] (Phase 2: three consecutive treatment days) was “acceptable” each time. The stability in solution result in data set [2] was “stable”. In addition, the “mutagenic effects (revertant numbers)” value in [3] is reported as “absence of any mutagenic effects”; in [4] (TA1535, TA1537, TA98, TA100, presence or absence of S-9 mix, plate incorporation), “absence of any mutagenic effects”. The “dose with reduction in the mean colony count (toxicity to the bacteria)” value in data set [4] (TA1535, presence of S-9 mix) was 1500 μg/plate. Moreover, the “limit of solubility in the mutation test” value in data set [4] (all strains, presence and absence of S-9 mix, plate incorporation) is listed as 1500 μg/plate.

For the compound `COc1cc(Nc2cc(Oc3ccc(NC(=O)Nc4cc(C(C)(C)C)cc(NS(C)(=O)=O)c4OC)c4ccccc34)ccn2)ccc1C(=O)NCCOCCOCCOP(=O)(O)O` [Example 19, 2-(2-(2-(4-((4-((4-(3-(5-(tert-Butyl)-2-methoxy-3-(methylsulfonamido)phenyl)ureido)naphthalen-1-yl)oxy)pyridin-2-yl)amino)-2-methoxybenzamido)ethoxy)ethoxy)ethyl dihydrogen phosphate], the IC50 against p38 MAPKα (MAPK14) was found to be 8 nM; on c-Src, 22 nM; at Syk, 8 nM. The total colon level in [5] (0.5 h), in [5] (1 h), in data set [5] (2 h), in data set [5] (4 h), in data set [5] (6 h) and in data set [5] (8 h) was 0.0 ng/g throughout. The total colon level in data set [5] (12 h) and in data set [5] (24 h) was 0.0 ng/g in each case. In addition, the Mean blood concentration in data set [5] (0.5 h), in data set [5] (1 h), in data set [5] (2 h), in data set [5] (4 h), in [5] (6 h) and in [5] (8 h) was 0.0 ng/mL throughout. The Mean blood concentration in data set [5] (12 h) and in data set [5] (24 h) was 0.0 ng/mL in each case.

`C#Cc1cc(Nc2nccc(Oc3ccc(NC(=O)Nc4cc(C(C)C)nn4-c4ccc(C)cc4)c4ccccc34)n2)cc(C(=O)NCCN2CCOCC2)c1` [Reference Compound B, 3-ethynyl-5-((4-((4-(3-(3-isopropyl-1-(p-tolyl)-1H-pyrazol-5-yl)ureido)naphthalen-1-yl)oxy)pyrimidin-2-yl)amino)-N-(2-morpholinoethyl)benzamide]: the “decomposition under the conditions of the hydrolytic stability experiment” value in data set [6] was “substantial decomposition”.
